Measured values: patent US11365192B2, “Pyridine compound substituted with azole” (TAISHO PHARMACEUTICAL CO., LTD., priority 2017, dated 2022)
pIC50: −log10 of the molar value.

Legend:
human CYP4A11 = human CYP4A11 (Homo sapiens (Human), UniProt Q02928); experiment: Inhibition test against 20-HETE producing enzyme CYP4A11 (luciferine derivative, luminescence); type: biochemical
Method in brief: (§1)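 E. coli membranes (100 μg/mL protein) expressing human enzyme, room temperature 60 min, luciferin-derivative luminescence; IC50 from % inhibition. CYP4F2: 50 mM KPO4 pH 7.4, 2.5 μM substrate, 1 mM NADPH. CYP4A11: 100 mM Tris-HCl pH 7.5, 60 μM substrate, NADP+/glucose 6-phosphate/G6PDH regenerating system, 3.3 mM MgCl2.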

human CYP4F2 = human CYP4F2 (Homo sapiens (Human), UniProt P78329); experiment: Inhibition test against 20-HETE producing enzyme CYP4F2 (luciferine derivative, luminescence); type: biochemical
Method in brief: as §1

[1] = E. coli membrane fraction expressing human CYP4A11, 60 μM luciferine derivative, room temperature 60 minutes
[2] = E. coli membrane fraction expressing human CYP4F2, 2.5 μM luciferine derivative, room temperature 60 minutes
[3] = human CYP4A11, luciferine derivative, luminescence
[4] = human CYP4F2, luciferine derivative, luminescence

Chain of human CYP4A11 (Q02928 5-519): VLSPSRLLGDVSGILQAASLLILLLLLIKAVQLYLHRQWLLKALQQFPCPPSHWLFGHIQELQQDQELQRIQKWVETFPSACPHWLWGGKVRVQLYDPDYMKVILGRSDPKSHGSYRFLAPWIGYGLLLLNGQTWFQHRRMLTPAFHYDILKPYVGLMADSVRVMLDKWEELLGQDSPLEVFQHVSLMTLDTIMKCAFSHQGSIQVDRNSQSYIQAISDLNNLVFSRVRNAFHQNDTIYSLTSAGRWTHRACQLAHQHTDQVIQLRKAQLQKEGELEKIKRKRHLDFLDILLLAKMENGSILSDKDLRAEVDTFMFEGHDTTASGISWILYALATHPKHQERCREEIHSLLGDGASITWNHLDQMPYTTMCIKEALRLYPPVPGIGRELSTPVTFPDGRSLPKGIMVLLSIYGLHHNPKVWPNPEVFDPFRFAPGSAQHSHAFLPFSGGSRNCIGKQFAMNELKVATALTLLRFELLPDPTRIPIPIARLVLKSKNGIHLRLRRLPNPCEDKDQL
Chain of human CYP4F2 (P78329 5-520): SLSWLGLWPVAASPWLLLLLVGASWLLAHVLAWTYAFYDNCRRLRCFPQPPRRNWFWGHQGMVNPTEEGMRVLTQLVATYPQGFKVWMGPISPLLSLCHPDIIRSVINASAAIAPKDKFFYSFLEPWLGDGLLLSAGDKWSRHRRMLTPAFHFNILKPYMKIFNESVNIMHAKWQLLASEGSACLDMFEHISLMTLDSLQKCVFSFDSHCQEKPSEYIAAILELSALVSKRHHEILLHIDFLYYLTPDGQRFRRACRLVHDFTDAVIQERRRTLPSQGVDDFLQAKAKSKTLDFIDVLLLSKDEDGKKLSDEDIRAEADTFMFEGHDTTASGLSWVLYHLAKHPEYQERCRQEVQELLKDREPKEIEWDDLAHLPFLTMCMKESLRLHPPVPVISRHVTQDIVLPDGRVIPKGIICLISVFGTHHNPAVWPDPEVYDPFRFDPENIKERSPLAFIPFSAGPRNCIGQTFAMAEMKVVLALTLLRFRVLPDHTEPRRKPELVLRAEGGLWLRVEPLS

pIC50 (human CYP4A11; [1])	pIC50 (human CYP4F2; [2])	pIC50 (human CYP4A11; [3])	pIC50 (human CYP4F2; [4])	SMILES
< 4.30	5.57	–	–	NC(=O)c1cc(COc2ccc(-c3[nH]ncc3C(F)F)nc2)ccn1 [Example 67-1, 4-[[6-[4-(Difluoromethyl)-1H-pyrazol-5-yl]-3-pyridinyl]oxymethyl]-2-pyridinecarboxamide]
–	–	7.57	7.31	O=C(O)/C=C/c1cccc(COc2ccc(-c3ccn[nH]3)nc2)c1F [Example 70-1, (E)-3-[2-Fluoro-3-[[6-(1H-pyrazol-5-yl)pyridin-3-yl]oxymethyl]phenyl]prop-2-enoic Acid]
–	–	7.55	5.96	O=C(O)CCc1cccc(COc2ccc(-c3ccn[nH]3)nc2)c1F [Example 70-2, 3-[2-Fluoro-3-[[6-(1H-pyrazol-5-yl)pyridin-3-yl]oxymethyl]phenyl]propanoic Acid]
–	–	7.55	6.55	O=C(O)C1CC1c1cccc(COc2ccc(-c3ccn[nH]3)nc2)c1F (stereo not drawn) [Example 70-3, 2-[2-Fluoro-3-[[6-(1H-pyrazol-5-yl)pyridin-3-yl]oxymethyl]phenyl]cyclopropane-1-carboxylic Acid]
–	–	6.82	7.25	O=C(O)/C=C/c1cccc(CCOc2ccc(-c3ccn[nH]3)nc2)c1 [Example 70-4]
–	–	7.37	7.57	O=C(O)/C=C/c1ccc(CCOc2ccc(-c3ccn[nH]3)nc2)cc1F [Example 70-5]
–	–	7.12	7.33	O=C(O)/C=C/c1ccc(CCOc2ccc(-c3ccn[nH]3)nc2)cc1 [Example 70-6]
–	–	6.89	6.92	O=C(O)C1CC1c1ccc(CCOc2ccc(-c3ccn[nH]3)nc2)cc1F (stereo not drawn) [Example 70-8]
–	–	6.68	6.70	O=C(O)C1CC1c1ccc(CCOc2ccc(-c3ccn[nH]3)nc2)cc1 (stereo not drawn) [Example 70-9]
–	–	7.37	6.48	O=C(O)C1CC1c1ccc(COc2ccc(-c3ccn[nH]3)nc2)cc1F (stereo not drawn) [Example 70-11, 2-[2-Fluoro-4-[[6-(1H-pyrazol-5-yl)pyridin-3-yl]oxymethyl]phenyl]cyclopropane-1-carboxylic Acid]
–	–	6.64	6.49	O=C(O)COCCCCCCCOc1ccc(-c2ccn[nH]2)nc1 [Example 71-3]
–	–	6.57	6.70	CC(OCCCCCCCOc1ccc(-c2ccn[nH]2)nc1)C(=O)O (stereo not drawn) [Example 71-4]
–	–	7.02	7.41	O=C(O)C1(OCCCCCCCOc2ccc(-c3ccn[nH]3)nc2)CC1 [Example 71-5]
–	–	7.09	6.26	O=C(O)C1CCc2cc(CCOc3ccc(-c4ccn[nH]4)nc3)ccc2O1 (stereo not drawn) [Example 71-7, 6-[2-[6-(1H-Pyrazol-5-yl)pyridin-3-yl]oxyethyl]-3,4-dihydro-2H-chromene-2-carboxylic Acid]
–	–	6.51	6.06	O=C(O)C1COc2cc(CCOc3ccc(-c4ccn[nH]4)nc3)ccc2C1 (stereo not drawn) [Example 71-9]
–	–	6.85	6.59	O=C(O)C1COc2ccc(CCOc3ccc(-c4ccn[nH]4)nc3)cc2C1 (stereo not drawn) [Example 71-10]

The remaining lines, values behind:

SMILES	pIC50 (human CYP4A11; [1])	pIC50 (human CYP4F2; [2])	pIC50 (human CYP4A11; [3])	pIC50 (human CYP4F2; [4])
CC(C)S(=O)(=O)Nc1cccc(COc2ccc(-c3ccn[nH]3)nc2)c1 [Example 56-1, N-[3-[[6-(1H-Pyrazol-5-yl)-3-pyridinyl]oxymethyl]phenyl]-2-propanesulfonamide]	6.85	6.35	–	–
CS(=O)(=O)N[C@H]1CC[C@@H](Oc2ccc(-c3ccn[nH]3)nc2)CC1 [Example 57-2]	5.17	5.14	–	–
CN([C@H]1CC[C@H](Oc2ccc(-c3ccn[nH]3)nc2)CC1)S(C)(=O)=O [Example 57-3]	5.70	5.70	–	–
CS(=O)(=O)NCC12CC(COc3ccc(-c4ccn[nH]4)nc3)(C1)C2 [Example 58-1, N-[[3-[[6-(1H-Pyrazol-5-yl)-3-pyridinyl]oxymethyl]-1-bicyclo[1.1.1]pentanyl]methyl]methanesulfonamide]	6.24	6.92	–	–
CN(CC12CC(COc3ccc(-c4ccn[nH]4)nc3)(C1)C2)S(C)(=O)=O [Example 58-2, N-Methyl-N-[[3-[[6-(1H-pyrazol-5-yl)-3-pyridinyl]oxymethyl]-1-bicyclo[1.1.1]pentanyl]methyl]methanesulfonamide]	6.62	8.29	–	–
OC(Cc1cccc(COc2ccc(-c3ccn[nH]3)nc2)c1)C(F)(F)F (stereo not drawn) [Example 59-1, 1,1,1-Trifluoro-3-[3-[[6-(1H-pyrazol-5-yl)-3-pyridinyl]oxymethyl]phenyl]-2-propanol]	6.89	8.00	–	–
OC(c1ccc(COc2ccc(-c3ccn[nH]3)nc2)cc1)C(F)F (stereo not drawn) [Example 59-2, 2,2-Difluoro-1-[4-[[6-(1H-pyrazol-5-yl)-3-pyridinyl]oxymethyl]phenyl]ethanol]	5.74	7.00	–	–
OC(c1ccc(COc2ccc(-c3ccn[nH]3)nc2)cc1)C(F)(F)F (stereo not drawn) [Example 59-3]	5.82	7.39	–	–
O=C(O)C(F)(F)c1cccc(COc2ccc(-c3ccn[nH]3)nc2)c1 [Example 60-1, 2,2-Difluoro-2-[3-[[6-(1H-pyrazol-5-yl)-3-pyridinyl]oxymethyl]phenyl]acetic Acid]	8.09	4.43	–	–
OCC(F)(F)c1cccc(COc2ccc(-c3ccn[nH]3)nc2)c1 [Example 60-2, 2,2-Difluoro-2-[3-[[6-(1H-pyrazol-5-yl)-3-pyridinyl]oxymethyl]phenyl]ethanol]	7.54	6.89	–	–
CS(=O)(=O)NC(=O)NCCCCOc1ccc(-c2ccn[nH]2)nc1 [Example 61-1, 1-Methylsulfonyl-3-[4-[[6-(1-H-pyrazol-5-yl)-3-pyridinyl]oxy]butyl]urea]	7.14	5.10	–	–
O=C1CN(CCCCOc2ccc(-c3ccn[nH]3)nc2)C(=O)N1 [Example 61-2, 1-[4-[[6-(1-H-pyrazol-5-yl)-3-pyridinyl]oxy]butyl]imidazolidine-2,4-dione]	6.12	6.55	–	–
c1cc(-c2ccc(OCCCCCc3nnn[nH]3)cn2)[nH]n1 [Example 62-1, 2-(1H-Pyrazol-5-yl)-5-[5-(1H-tetrazol-5-yl)pentoxy]pyridine]	7.55	5.46	–	–
O=c1[nH]c(CCCCCOc2ccc(-c3ccn[nH]3)nc2)no1 [Example 62-2, 3-[5-[[6-(1H-Pyrazol-5-yl)-3-pyridinyl]oxy]pentyl]-4H-1,2,4-oxadiazol-5-one]	7.57	5.72	–	–
O=C1NC(=O)C(CCCCOc2ccc(-c3ccn[nH]3)nc2)O1 (stereo not drawn) [Example 63-1, 5-[4-[[6-(1H-Pyrazol-5-yl)-3-pyridinyl]oxy]butyl]oxazolidine-2,4-dione]	7.51	4.92	–	–
Oc1cc(CCCCOc2ccc(-c3ccn[nH]3)nc2)on1 [Example 64-1, 5-[4-[[6-(1H-Pyrazol-5-yl)-3-pyridinyl]oxy]butyl]-3-isoxazole]	7.39	6.11	–	–

SMILES	pIC50 (human CYP4A11; [1])	pIC50 (human CYP4F2; [2])	pIC50 (human CYP4A11; [3])	pIC50 (human CYP4F2; [4])
O=S(=O)(NCc1cccc(COc2ccc(-c3ccn[nH]3)nc2)c1)C(F)(F)F [Example 65-1, 1,1,1-Trifluoro-N-[[3-[[6-(1-H-pyrazol-5-yl)-3-pyridinyl]oxymethyl]phenyl]methyl]methanesulfonamide]	8.09	7.20	–	–
CS(=O)(=O)c1cc(O)cc(COc2ccc(-c3[nH]ncc3Cl)nc2)c1 [Example 66-1, 3-[[6-(4-Chloro-1H-pyrazol-5-yl)-3-pyridinyl]oxymethyl]-5-methylsulfonylphenol]	7.48	7.80	–	–
O=C(O)[C@@H]1CCc2ccc(COc3ccc(-c4ccn[nH]4)nc3)cc2C1 [Example 69-1-1]	–	–	7.68	6.62
O=C(O)[C@H]1CCc2ccc(COc3ccc(-c4ccn[nH]4)nc3)cc2C1 [Example 69-1-2]	–	–	7.60	6.70
O=C(O)[C@@H]1COc2ccc(COc3ccc(-c4ccn[nH]4)nc3)cc2C1 [Example 69-2-1]	–	–	7.43	6.22
O=C(O)[C@H]1COc2ccc(COc3ccc(-c4ccn[nH]4)nc3)cc2C1 [Example 69-2-2]	–	–	7.44	5.96
O=C(O)[C@@H]1CCc2ccc(COc3ccc(-c4ccn[nH]4)nc3)cc2O1 [Example 69-3-1]	–	–	7.64	6.96
O=C(O)[C@H]1CCc2ccc(COc3ccc(-c4ccn[nH]4)nc3)cc2O1 [Example 69-3-2]	–	–	6.66	6.52
O=C(O)[C@@H]1CCCN(S(=O)(=O)c2cccc(COc3ccc(-c4ccn[nH]4)nc3)c2)C1 [Example 69-4-1]	–	–	7.57	7.07
O=C(O)[C@H]1CCCN(S(=O)(=O)c2cccc(COc3ccc(-c4ccn[nH]4)nc3)c2)C1 [Example 69-4-2]	–	–	7.40	6.17
O=C(O)[C@H]1C[C@@H]1c1ccc(CCOc2ccc(-c3ccn[nH]3)nc2)cc1 [Example 70-10-2]	–	–	6.35	6.47
CCC(OCCCCCCCOc1ccc(-c2ccn[nH]2)nc1)C(=O)O (stereo not drawn) [Example 71-1, 2-[7-[6-(1H-Pyrazol-5-yl)pyridin-3-yl]oxyheptoxy]butanoic Acid]	–	–	6.96	6.85
CC[C@@H](OCCCCCCCOc1ccc(-c2ccn[nH]2)nc1)C(=O)O [Example 71-2-1]	–	–	6.77	6.52
CC[C@H](OCCCCCCCOc1ccc(-c2ccn[nH]2)nc1)C(=O)O [Example 71-2-2]	–	–	7.06	7.05
O=C(O)[C@@H]1CCc2cc(CCOc3ccc(-c4ccn[nH]4)nc3)ccc2O1 [Example 71-8-1]	–	–	6.00	6.37
O=C(O)[C@H]1CCc2cc(CCOc3ccc(-c4ccn[nH]4)nc3)ccc2O1 [Example 71-8-2]	–	–	7.32	6.25
